Numbers after ± are expanded uncertainties.
Test: refractive index (Na D-line) (dimensionless); xn = mol fraction of the nth substance listed
Conditions: 101 kPa, Liquid, Standard Abbe refractometry

CCn1cc[n+](C)c1.F[B-](F)(F)F [1-ethyl-3-methylimidazolium tetrafluoroborate] + CO
refractive index (288.15 K, x1 = 0.0136): 1.3368 ± 0.0005
refractive index (288.15 K, x1 = 0.0283): 1.3419 ± 0.0005
refractive index (288.15 K, x1 = 0.044): 1.3466 ± 0.0005
refractive index (288.15 K, x1 = 0.0615): 1.3515 ± 0.0005
refractive index (288.15 K, x1 = 0.101): 1.3604 ± 0.0005
refractive index (288.15 K, x1 = 0.1485): 1.3697 ± 0.0005
refractive index (288.15 K, x1 = 0.2073): 1.3785 ± 0.0005
refractive index (288.15 K, x1 = 0.2817): 1.3865 ± 0.0005
refractive index (288.15 K, x1 = 0.379): 1.3937 ± 0.0005
refractive index (288.15 K, x1 = 0.5111): 1.4008 ± 0.0005
refractive index (288.15 K, x1 = 0.5959): 1.404 ± 0.0006
refractive index (288.15 K, x1 = 0.7027): 1.4075 ± 0.0006
refractive index (288.15 K, x1 = 0.8297): 1.4109 ± 0.0006
refractive index (288.15 K, x1 = 1): 1.4143 ± 0.0006
refractive index (298.15 K, x1 = 0.0136): 1.3324 ± 0.0005
refractive index (298.15 K, x1 = 0.0283): 1.3376 ± 0.0005
refractive index (298.15 K, x1 = 0.044): 1.3423 ± 0.0005
refractive index (298.15 K, x1 = 0.0615): 1.3474 ± 0.0005
refractive index (298.15 K, x1 = 0.101): 1.3566 ± 0.0005
refractive index (298.15 K, x1 = 0.1485): 1.3659 ± 0.0005
refractive index (298.15 K, x1 = 0.2073): 1.3749 ± 0.0005
refractive index (298.15 K, x1 = 0.2817): 1.383 ± 0.0005
refractive index (298.15 K, x1 = 0.379): 1.3905 ± 0.0005
refractive index (298.15 K, x1 = 0.5111): 1.3978 ± 0.0005
refractive index (298.15 K, x1 = 0.5959): 1.4012 ± 0.0006
refractive index (298.15 K, x1 = 0.7027): 1.4048 ± 0.0006
refractive index (298.15 K, x1 = 0.8297): 1.4082 ± 0.0006
refractive index (298.15 K, x1 = 1): 1.4118 ± 0.0006
refractive index (308.15 K, x1 = 0.0136): 1.3286 ± 0.0005
refractive index (308.15 K, x1 = 0.0283): 1.3337 ± 0.0005
refractive index (308.15 K, x1 = 0.044): 1.3389 ± 0.0005
refractive index (308.15 K, x1 = 0.0615): 1.3439 ± 0.0005
refractive index (308.15 K, x1 = 0.101): 1.353 ± 0.0005
refractive index (308.15 K, x1 = 0.1485): 1.3627 ± 0.0005
refractive index (308.15 K, x1 = 0.2073): 1.3715 ± 0.0005
refractive index (308.15 K, x1 = 0.2817): 1.38 ± 0.0005
refractive index (308.15 K, x1 = 0.379): 1.3874 ± 0.0005
refractive index (308.15 K, x1 = 0.5111): 1.3949 ± 0.0005
refractive index (308.15 K, x1 = 0.5959): 1.3985 ± 0.0006
refractive index (308.15 K, x1 = 0.7027): 1.4022 ± 0.0006
refractive index (308.15 K, x1 = 0.8297): 1.4056 ± 0.0006
refractive index (308.15 K, x1 = 1): 1.4092 ± 0.0006
refractive index (318.15 K, x1 = 0.0136): 1.3247 ± 0.0005
refractive index (318.15 K, x1 = 0.0283): 1.33 ± 0.0005
refractive index (318.15 K, x1 = 0.044): 1.3357 ± 0.0005
refractive index (318.15 K, x1 = 0.0615): 1.3402 ± 0.0005
refractive index (318.15 K, x1 = 0.101): 1.3495 ± 0.0005
refractive index (318.15 K, x1 = 0.1485): 1.3592 ± 0.0005
refractive index (318.15 K, x1 = 0.2073): 1.3685 ± 0.0005
refractive index (318.15 K, x1 = 0.2817): 1.3768 ± 0.0005
refractive index (318.15 K, x1 = 0.379): 1.3845 ± 0.0005
refractive index (318.15 K, x1 = 0.5111): 1.3922 ± 0.0005
refractive index (318.15 K, x1 = 0.5959): 1.3958 ± 0.0006
refractive index (318.15 K, x1 = 0.7027): 1.3996 ± 0.0006
refractive index (318.15 K, x1 = 0.8297): 1.4031 ± 0.0006
refractive index (318.15 K, x1 = 1): 1.4067 ± 0.0006

CCCCn1cc[n+](C)c1.F[B-](F)(F)F [1-butyl-3-methylimidazolium tetrafluoroborate] + CO
refractive index (288.15 K, x1 = 0.0113): 1.337 ± 0.0005
refractive index (288.15 K, x1 = 0.0235): 1.3428 ± 0.0005
refractive index (288.15 K, x1 = 0.0366): 1.3481 ± 0.0005
refractive index (288.15 K, x1 = 0.0509): 1.3539 ± 0.0005
refractive index (288.15 K, x1 = 0.0845): 1.364 ± 0.0005
refractive index (288.15 K, x1 = 0.1254): 1.3729 ± 0.0005
refractive index (288.15 K, x1 = 0.1771): 1.3827 ± 0.0005
refractive index (288.15 K, x1 = 0.2441): 1.3912 ± 0.0005
refractive index (288.15 K, x1 = 0.3338): 1.3999 ± 0.0005
refractive index (288.15 K, x1 = 0.4626): 1.4082 ± 0.0005
refractive index (288.15 K, x1 = 0.5482): 1.4123 ± 0.0005
refractive index (288.15 K, x1 = 0.6589): 1.4163 ± 0.0005
refractive index (288.15 K, x1 = 0.8037): 1.4204 ± 0.0005
refractive index (288.15 K, x1 = 1): 1.4243 ± 0.0005
refractive index (298.15 K, x1 = 0.0113): 1.3325 ± 0.0005
refractive index (298.15 K, x1 = 0.0235): 1.3381 ± 0.0005
refractive index (298.15 K, x1 = 0.0366): 1.3435 ± 0.0005
refractive index (298.15 K, x1 = 0.0509): 1.3488 ± 0.0005
refractive index (298.15 K, x1 = 0.0845): 1.3595 ± 0.0005
refractive index (298.15 K, x1 = 0.1254): 1.369 ± 0.0005
refractive index (298.15 K, x1 = 0.1771): 1.3788 ± 0.0005
refractive index (298.15 K, x1 = 0.2441): 1.3877 ± 0.0005
refractive index (298.15 K, x1 = 0.3338): 1.3966 ± 0.0005
refractive index (298.15 K, x1 = 0.4626): 1.4052 ± 0.0005
refractive index (298.15 K, x1 = 0.5482): 1.4093 ± 0.0005
refractive index (298.15 K, x1 = 0.6589): 1.4135 ± 0.0005
refractive index (298.15 K, x1 = 0.8037): 1.4177 ± 0.0005
refractive index (298.15 K, x1 = 1): 1.4217 ± 0.0005
refractive index (308.15 K, x1 = 0.0113): 1.3285 ± 0.0005
refractive index (308.15 K, x1 = 0.0235): 1.3343 ± 0.0005
refractive index (308.15 K, x1 = 0.0366): 1.3398 ± 0.0005
refractive index (308.15 K, x1 = 0.0509): 1.3453 ± 0.0005
refractive index (308.15 K, x1 = 0.0845): 1.3562 ± 0.0005
refractive index (308.15 K, x1 = 0.1254): 1.3657 ± 0.0005
refractive index (308.15 K, x1 = 0.1771): 1.3754 ± 0.0005
refractive index (308.15 K, x1 = 0.2441): 1.3845 ± 0.0005
refractive index (308.15 K, x1 = 0.3338): 1.3934 ± 0.0005
refractive index (308.15 K, x1 = 0.4626): 1.4022 ± 0.0005
refractive index (308.15 K, x1 = 0.5482): 1.4064 ± 0.0005
refractive index (308.15 K, x1 = 0.6589): 1.4107 ± 0.0005
refractive index (308.15 K, x1 = 0.8037): 1.415 ± 0.0005
refractive index (308.15 K, x1 = 1): 1.419 ± 0.0005
refractive index (318.15 K, x1 = 0.0113): 1.3246 ± 0.0005
refractive index (318.15 K, x1 = 0.0235): 1.3305 ± 0.0005
refractive index (318.15 K, x1 = 0.0366): 1.3365 ± 0.0005
refractive index (318.15 K, x1 = 0.0509): 1.3419 ± 0.0005
refractive index (318.15 K, x1 = 0.0845): 1.3536 ± 0.0005
refractive index (318.15 K, x1 = 0.1254): 1.3629 ± 0.0005
refractive index (318.15 K, x1 = 0.1771): 1.3726 ± 0.0005
refractive index (318.15 K, x1 = 0.2441): 1.3813 ± 0.0005
refractive index (318.15 K, x1 = 0.3338): 1.3904 ± 0.0005
refractive index (318.15 K, x1 = 0.4626): 1.3993 ± 0.0005
refractive index (318.15 K, x1 = 0.5482): 1.4036 ± 0.0005
refractive index (318.15 K, x1 = 0.6589): 1.408 ± 0.0005
refractive index (318.15 K, x1 = 0.8037): 1.4124 ± 0.0005
refractive index (318.15 K, x1 = 1): 1.4164 ± 0.0005
